24 molecules from US20240116946A1 (Gilead Sciences, Inc., priority 2022, published 2024) can be followed below.

One assay has as its system SARS-CoV-2-NLuc. The experiment in a line: microbe, parasite or virus in culture. It is filed as cell-based, SARS Coronavirus 2. To be noted: read-out: MPro EC50.
In assay [1] the target is recombinant SARS-CoV-2 Main protease (Mpro) (Severe acute respiratory syndrome coronavirus 2 (2019-nCoV) (SARS-CoV-2), UniProt P0DTD1). The assay is described as follows: Cov Mpro Biochemical IC50 Assay. To be noted: recombinant SARS-CoV-2 Mpro 7.5 nM, fluorogenic peptide substrate 40 μM; read-out: MPro IC50.

A word on the EC50: it is the concentration needed to bring the measured effect to its halfway point. By IC50 is commonly meant the concentration at which inhibition is half-maximal. As to `COc1cc(-c2cc3[nH]c(=O)n(-c4cncc5ccccc45)c(=O)c3cc2OC)c(C#N)cc1F` (single isomer, unassigned) [Example 572, 5-fluoro-2-[3-(4-isoquinolyl)-6-methoxy-2,4-dioxo-1H-quinazolin-7-yl]-4-methoxy-benzonitrile], the concentration giving a half-maximal response (EC50) in the assay with SARS-CoV-2-NLuc was found to be 10.6 nM. In addition, the IC50 in assay [1] amounted to 2.9 nM.
For `COc1cnc(Cl)c(-c2cc3[nH]c(=O)n(-c4cncc5ccccc45)c(=O)c3s2)c1` (single isomer, unassigned) [Example 628, 6-(2-chloro-5-methoxypyridin-3-yl)-3-(isoquinolin-4-yl)thieno[3,2-d]pyrimidine-2,4(1H,3H)-dione], in that order: 15.9 nM and 3.26 nM.
For the molecule `COc1cnc(Cl)c(-c2cc3[nH]c(=O)n(-c4cncc5ccccc45)c(=O)c3s2)c1` (single isomer, unassigned) [Example 629, 6-(2-chloro-5-methoxypyridin-3-yl)-3-(isoquinolin-4-yl)thieno[3,2-d]pyrimidine-2,4(1H,3H)-dione], the EC50 in the assay with SARS-CoV-2-NLuc came to 290 nM. Further, the concentration for half-maximal inhibition (IC50) in assay [1] stood at 42.4 nM.
As for `COc1cc(-c2cc3c(s2)c(=O)n(-c2cncc4ccccc24)c(=O)n3CC#N)c(Cl)cc1F` (single isomer, unassigned) [Example 633, 2-[6-(2-chloro-4-fluoro-5-methoxy-phenyl)-3-(4-isoquinolyl)-2,4-dioxo-thieno[3,2-d]pyrimidin-1-yl]acetonitrile], the concentration giving a half-maximal response (EC50) in the assay with SARS-CoV-2-NLuc is 3.29 nM. The IC50 in assay [1] came to 3.22 nM.
For `COc1cc(-c2cc3c(s2)c(=O)n(-c2cncc4ccccc24)c(=O)n3CC#N)c(Cl)cc1F` (single isomer, unassigned) [Example 634, 2-[6-(2-chloro-4-fluoro-5-methoxy-phenyl)-3-(4-isoquinolyl)-2,4-dioxo-thieno[3,2-d]pyrimidin-1-yl]acetonitrile], the EC50 in the assay on SARS-CoV-2-NLuc is 31.2 nM. The half-inhibitory concentration (IC50) in assay [1] was found to be 29 nM.
With `COc1cc(-c2cc3c(s2)c(=O)n(-c2cncc4ccccc24)c(=O)n3CC2(C#N)CC2)c(Cl)cc1F` (single isomer, unassigned) [Example 635, 1-[[6-(2-chloro-4-fluoro-5-methoxy-phenyl)-3-(4-isoquinolyl)-2,4-dioxo-thieno[3,2-d]pyrimidin-1-yl]methyl]cyclopropanecarbonitrile], the EC50 with SARS-CoV-2-NLuc came to 1.78 nM. The concentration for half-maximal inhibition (IC50) in assay [1] stood at 3.26 nM.
As to `COc1cc(-c2cc3c(s2)c(=O)n(-c2cncc4ccccc24)c(=O)n3CC2(C#N)CC2)c(Cl)cc1F` (single isomer, unassigned) [Example 636, 1-[[6-(2-chloro-4-fluoro-5-methoxy-phenyl)-3-(4-isoquinolyl)-2,4-dioxo-thieno[3,2-d]pyrimidin-1-yl]methyl]cyclopropanecarbonitrile], the EC50 in the assay on SARS-CoV-2-NLuc worked out at 5.54 nM. The concentration for half-maximal inhibition (IC50) in assay [1] is 11.6 nM.
For `COc1cc(-c2cc3c(s2)c(=O)n(-c2cncc4ccccc24)c(=O)n3CCC#N)c(Cl)cc1F` (single isomer, unassigned) [Example 637, 3-[6-(2-chloro-4-fluoro-5-methoxy-phenyl)-3-(4-isoquinolyl)-2,4-dioxo-thieno[3,2-d]pyrimidin-1-yl]propanenitrile], in that order: 1.85 nM and 3.48 nM.
With `COc1cc(-c2cc3c(s2)c(=O)n(-c2cncc4ccccc24)c(=O)n3CCC#N)c(Cl)cc1F` (single isomer, unassigned) [Example 638, 3-[6-(2-chloro-4-fluoro-5-methoxy-phenyl)-3-(4-isoquinolyl)-2,4-dioxo-thieno[3,2-d]pyrimidin-1-yl]propanenitrile], the EC50 with SARS-CoV-2-NLuc stood at 60.6 nM. Moreover, the 50% inhibitory concentration (IC50) in assay [1] was determined as 192 nM.
For the molecule `COc1cc(-c2cc3[nH]c(=O)n(-c4cncc5cnn(C)c45)c(=O)c3s2)c(Cl)cc1F` (single isomer, unassigned) [Example 639, 6-(2-chloro-4-fluoro-5-methoxy-phenyl)-3-(1-methylpyrazolo[4,3-c]pyridin-7-yl)-1H-thieno[3,2-d]pyrimidine-2,4-dione], in the assay on SARS-CoV-2-NLuc, the EC50 was 173 nM. For the same molecule, the concentration for half-maximal inhibition (IC50) in assay [1] came to 114 nM.
In the case of `COc1cc(-c2cc3[nH]c(=O)n(-c4cncc5cnn(C)c45)c(=O)c3s2)c(Cl)cc1F` (single isomer, unassigned) [Example 640, 6-(2-chloro-4-fluoro-5-methoxy-phenyl)-3-(1-methylpyrazolo[4,3-c]pyridin-7-yl)-1H-thieno[3,2-d]pyrimidine-2,4-dione], the EC50 in the assay on SARS-CoV-2-NLuc was found to be 3.48 nM. The IC50 in assay [1] was < 4.26 nM.
Consider `COc1cc(-c2cc3c(s2)c(=O)n(-c2cncc4cnn(C)c24)c(=O)n3CCC#N)c(Cl)cc1F` (single isomer, unassigned) [Example 644, 3-[6-(2-chloro-4-fluoro-5-methoxy-phenyl)-3-(1-methylpyrazolo[4,3-c]pyridin-7-yl)-2,4-dioxo-thieno[3,2-d]pyrimidin-1-yl]propanenitrile], for which, in the assay with SARS-CoV-2-NLuc, the EC50 amounted to 1.55 nM. Besides, the IC50 in assay [1] is 3.1 nM.
Take `COc1cc(-c2cc3c(s2)c(=O)n(-c2cncc4cnn(C)c24)c(=O)n3CCC#N)c(Cl)cc1F` (single isomer, unassigned) [Example 645, 3-[6-(2-chloro-4-fluoro-5-methoxy-phenyl)-3-(1-methylpyrazolo[4,3-c]pyridin-7-yl)-2,4-dioxo-thieno[3,2-d]pyrimidin-1-yl]propanenitrile]: in the assay with SARS-CoV-2-NLuc, the EC50 was 36 nM. Moreover, in assay [1], the half-inhibitory concentration (IC50) stood at 43.5 nM.
`COc1cc(-c2cc3[nH]c(=O)n(-c4cncc5cccc(F)c45)c(=O)c3s2)c(Cl)cc1F` (single isomer, unassigned) [Example 899, 6-(2-chloro-4-fluoro-5-methoxyphenyl)-3-(5-fluoroisoquinolin-4-yl)thieno[3,2-d]pyrimidine-2,4(1H,3H)-dione]: the EC50 in the assay with SARS-CoV-2-NLuc was determined as 3.13 nM. In assay [1], the IC50 is 4.03 nM.
Consider `COc1cc(-c2cc3[nH]c(=O)n(-c4cncc5cccc(F)c45)c(=O)c3s2)c(Cl)cc1F` (single isomer, unassigned) [Example 900, 6-(2-chloro-4-fluoro-5-methoxyphenyl)-3-(5-fluoroisoquinolin-4-yl)thieno[3,2-d]pyrimidine-2,4(1H,3H)-dione], for which, in the assay with SARS-CoV-2-NLuc, the EC50 was determined as 172 nM. Moreover, in assay [1], the half-maximal inhibitory concentration (IC50) is 334 nM.
Take `Cn1ncc2cncc(-n3c(=O)c4sc(-c5ccc(F)cc5Cl)cc4n(CCC#N)c3=O)c21` (single isomer, unassigned) [Example 955, 3-(6-(2-chloro-4-fluorophenyl)-3-(1-methyl-1H-pyrazolo[4,3-c]pyridin-7-yl)-2,4-dioxo-3,4-dihydrothieno[3,2-d]pyrimidin-1(2H)-yl)propanenitrile]: the EC50 in the assay with SARS-CoV-2-NLuc was 9.67 nM. Further, the half-maximal inhibitory concentration (IC50) in assay [1] was 6.81 nM.
Turning to `Cn1ncc2cncc(-n3c(=O)c4sc(-c5ccc(F)cc5Cl)cc4n(CCC#N)c3=O)c21` (single isomer, unassigned) [Example 956, 3-(6-(2-chloro-4-fluorophenyl)-3-(1-methyl-1H-pyrazolo[4,3-c]pyridin-7-yl)-2,4-dioxo-3,4-dihydrothieno[3,2-d]pyrimidin-1(2H)-yl)propanenitrile], the EC50 with SARS-CoV-2-NLuc was determined as 699 nM. Also, in assay [1], the IC50 is > 1000 nM.
On to `COc1cc(-c2cc3[nH]c(=O)n(-c4cncc5ccn(C)c45)c(=O)c3s2)c(Cl)cc1F` (single isomer, unassigned) [Example 957, 6-(2-chloro-4-fluoro-5-methoxyphenyl)-3-(1-methyl-1H-pyrrolo[3,2-c]pyridin-7-yl)thieno[3,2-d]pyrimidine-2,4(1H,3H)-dione], for which, in the assay with SARS-CoV-2-NLuc, the EC50 came out at 2.65 nM. Further, the 50% inhibitory concentration (IC50) in assay [1] was found to be 2.22 nM.
For `COc1cc(-c2cc3[nH]c(=O)n(-c4cncc5ccn(C)c45)c(=O)c3s2)c(Cl)cc1F` (single isomer, unassigned) [Example 958, 6-(2-chloro-4-fluoro-5-methoxyphenyl)-3-(1-methyl-1H-pyrrolo[3,2-c]pyridin-7-yl)thieno[3,2-d]pyrimidine-2,4(1H,3H)-dione], in that order: 13.3 nM and 11.2 nM.
As to `COc1cc(-c2cc3c(s2)c(=O)n(-c2cncc4[nH]nc(C)c24)c(=O)n3CCC#N)c(Cl)cc1F` (single isomer, unassigned) [Example 959, 3-(6-(2-chloro-4-fluoro-5-methoxyphenyl)-3-(3-methyl-1H-pyrazolo[3,4-c]pyridin-4-yl)-2,4-dioxo-3,4-dihydrothieno[3,2-d]pyrimidin-1(2H)-yl)propanenitrile], in the assay on SARS-CoV-2-NLuc, the EC50 was found to be 5.86 nM. For the same molecule, the concentration for half-maximal inhibition (IC50) in assay [1] amounted to 5.11 nM.
In the case of `COc1cc(-c2cc3c(s2)c(=O)n(-c2cncc4[nH]nc(C)c24)c(=O)n3CCC#N)c(Cl)cc1F` (single isomer, unassigned) [Example 960, 3-(6-(2-chloro-4-fluoro-5-methoxyphenyl)-3-(3-methyl-1H-pyrazolo[3,4-c]pyridin-4-yl)-2,4-dioxo-3,4-dihydrothieno[3,2-d]pyrimidin-1(2H)-yl)propanenitrile], the EC50 in the assay with SARS-CoV-2-NLuc came out at 163 nM. Moreover, the IC50 in assay [1] came to 79.6 nM.
`Cn1ncc2cncc(-n3c(=O)c4sc(-c5ccccc5C#N)cc4n(CCC#N)c3=O)c21` (single isomer, unassigned) [Example 961, 2-(1-(2-cyanoethyl)-3-(1-methyl-1H-pyrazolo[4,3-c]pyridin-7-yl)-2,4-dioxo-1,2,3,4-tetrahydrothieno[3,2-d]pyrimidin-6-yl)benzonitrile]: the half-maximal effective concentration (EC50) with SARS-CoV-2-NLuc was determined as 19.6 nM. Further, the IC50 in assay [1] was 6.18 nM.
Take `Cn1ncc2cncc(-n3c(=O)c4sc(-c5ccccc5C#N)cc4n(CCC#N)c3=O)c21` (single isomer, unassigned) [Example 962, 2-(1-(2-cyanoethyl)-3-(1-methyl-1H-pyrazolo[4,3-c]pyridin-7-yl)-2,4-dioxo-1,2,3,4-tetrahydrothieno[3,2-d]pyrimidin-6-yl)benzonitrile]: the EC50 with SARS-CoV-2-NLuc is > 1000 nM. Moreover, in assay [1], the concentration for half-maximal inhibition (IC50) was > 1000 nM.
Turning to `N#CCCn1c(=O)n(-c2cncc3ccccc23)c(=O)c2sc(-c3ccccc3C#N)cc21` (single isomer, unassigned) [Example 963, 2-(1-(2-cyanoethyl)-3-(isoquinolin-4-yl)-2,4-dioxo-1,2,3,4-tetrahydrothieno[3,2-d]pyrimidin-6-yl)benzonitrile], the half-maximal effective concentration (EC50) in the assay with SARS-CoV-2-NLuc is 14.6 nM. The half-maximal inhibitory concentration (IC50) in assay [1] came out at 7.92 nM.
